Assay results from patent US7341859B2, “ADH from Rhodococcus erythropolis” (Degussa AG, priority 2002, dated 2008).
Like-named read-outs stand apart in the source and are kept apart here.

Legend:
[1] = system: alcohol dehydrogenase from R. erythropolis; assay: Preparative reduction of keto-compounds with ADH and formate dehydrogenase regeneration, chiral GC; type: biochemical, Rhodococcus erythropolis; details: for Conversion after 10 min [%]: 10 mM keto-compound, 0.5 U/ml alcohol dehydrogenase; for ee [%] of the product: enzymatic reduction, chiral GC
Procedure: The product is analysed by means of gas chromatography, wherein the stationary phase in the GC column is capable of separating enantiomeric alcohols so that information on the ee values of the enzymatically prepared product can be obtained.
Such a mixture for reduction contains: • 10 mM keto-compound • 0.5 mM NAD • 100 mM Na formate • 1 U/ml formate dehydrogenase
At the times 0, 5 min and 10 min, samples are taken (100 μl), extracted with 100 μl of chloroform and the chloroform phase is analysed using gas chromatography.
Column: CP-Chirasil-DEX CB length: 25 m, diameter: 25 μm (Chrompack). Temperature programme: 5 min at 60° C., then 5° C./min up to 190° C. (for hexanone/hexanol: 30 min at 60° C., then 10° C./min to 195° C.). Column flow 1.3 ml/min; gas:helium
p-Cl-acetophenone, acetophenone, ethyl 2-oxobutyrate, 2-hexanone and 2-heptanone.

ADH from R. erythropolis = assay: Enantioselective oxidation of (R,S)-phenylethanol with ADH and NADH oxidase, chiral GC; type: biochemical, Rhodococcus erythropolis; details: after 2 h; for oxidation of the enantiomer: 10 mM (R,S)-phenylethanol
Procedure: By means of enantioselective oxidation of an alcohol, an enantiomer-enriched or enantiomer-pure alcohol, for example, can be obtained from a racemate.
Samples were taken after 0, 1 and 2 h and separated by gas chromatography (column: CP-Chirasil-DEX CB length: 25 m, diameter: 25 μm (Chrompack). Temperature programme: 5 min at 60° C., then 5° C./min up to 190° C.; column flow rate 1.3 ml/min; gas: helium. In this case, both the acetophenone peak (product; retention time=16.9 min), and also the enantiomers of phenylethanol (reactants; retention times R-phenylethanol=20.8 min and S-phenylethanol=21.1 min) were recorded.

[2] = system: aldehyde reductase from Corynebacterium sp.; details: cited from earlier work; for relative activity: phenylacetaldehyde = 100%
[3] = system: alcohol dehydrogenase from R. erythropolis (RE-ADH, new ADH expr. in E. coli); assay: Relative/specific activity of substrates with the new ADH from R. erythropolis (photometric NADH test); type: biochemical, Rhodococcus erythropolis; details: for Relative activity [%]: relative to acetophenone = 100
Procedure: In this case, as is normal, the measured activity for one compound is set at 100% and the activity/activities of the other compound(s) is determined in relation thereto. From the relative activities when compared with other substrates, it can then be recognised whether such another substrate is accepted to a greater or lesser extent.
A first purification can be achieved by anion exchange chromatography (MonoQ-Material, Pharmacia) (mobile buffer: 50 mM TEA buffer, pH 7.0; elution with a NaCl gradient of 0-1 M).
For the activity test, the cells were harvested (15 min centrifuging at 14000 rpm, 4° C.) and degraded after resuspension with 100 mM KPi buffer, pH 6.0 (1.5 ml of buffer per 1 g of cells). For the purposes of degradation, the suspension was treated with ultrasound (2×30 sec. power 100%, pulse 50), then the cell broth was centrifuged. The supernatant liquid is the soluble crude extract, the sediment is the insoluble fraction.
For a comparison using relative activities, the activity of the two enzymes was given with respect to phenylacetaldehyde=100%.
In this case, the relative activity is given with respect to the activity measured for acetophenone.

[4] = system: ADH in accordance with J. Peters, Dissertation; details: cited from earlier work
[5] = system: ADH in accordance with DE 4209022; details: cited from earlier work
[6] = system: whole cells of R. erythropolis; assay: Continuous conversion with alginate-immobilised whole cells in a column; type: cell-based, Rhodococcus erythropolis; details: 1.5 mM, 2 ml per h
Procedure: Our results with whole cells of R. erythropolis indicate that this strain contains several ADHs, including at least one with opposite enantioselectivity. […] However, this high ee value is retained for only about 10 h (about 3 volume changes), then the ee value drops drastically while the conversion remains at the same high level.

C[C@H](O)c1ccc(Cl)cc1 = assay: purified protein, by the assay type; details: other: oxidation reaction
CC(=O)c1ccc(Cl)cc1 = assay: purified protein, by the assay type; details: other: reduction reaction
[7] = substrate: NC(=O)c1ccc[n+]([C@@H]2O[C@H](COP(=O)([O-])OP(=O)(O)OC[C@H]3O[C@@H](n4cnc5c(N)ncnc54)[C@H](O)[C@@H]3O)[C@@H](O)[C@H]2O)c1; assay: purified protein, by the assay type; details: other: oxidation reaction
[8] = relative to 2-heptanone = 100%, listed as 2-decanone
[9] = relative to 2-heptanone = 100%, listed as drawing 11
[10] = relative to methyl acetoacetate = 100%
[11] = relative to 2-heptanone = 100%, listed as 2-heptanone
[12] = relative to 2-heptanone = 100%, listed as drawing 10
[13] = relative to 2-heptanone = 100%, listed as drawing 12
[14] = relative to 2-heptanone = 100%, listed as phenoxyacetone
[15] = relative to p-methylacetophenone = 100%, listed as drawing 3
[16] = relative to p-methylacetophenone = 100%, listed as p-chloroacetophenone
[17] = relative to methyl acetoacetate = 100%, listed as drawing 9
[18] = relative to methyl acetoacetate = 100%, listed as p-chloroacetophenone
[19] = relative to p-fluoroacetophenone = 100%, listed as drawing 5
[20] = relative to p-fluoroacetophenone = 100%, listed as p-methoxyacetophenone
[21] = relative to p-methylacetophenone = 100%

Molecule: CCCCC(C)=O [2-hexanone]
- Conversion after 10 min [%] [1]: >95%
- ee [%] of the product [1]: >99%

Molecule: C[C@@H](O)c1ccccc1 [(R)-phenylethanol]
- ee value of the remaining enantiomer (ADH from R. erythropolis): > 99%
- oxidation of the enantiomer (ADH from R. erythropolis): remained untouched

Molecule: C[C@H](O)c1ccccc1 [(S)-phenylethanol]
- oxidation of the enantiomer (ADH from R. erythropolis): fully oxidised

Molecule: CC(=O)c1ccccc1 [Acetophenone]
- Conversion after 10 min [%] [1]: >95%
- ee [%] of the product [1]: >99%
- activity for acetophenone reduction ([2]; homogeneous enzyme): 22.4 U/mg
- relative activity [2]: 35%
- activity of Rhodococcus ADH compared with the Corynebacterium enzyme ([3]; highly purified enzymes, towards acetophenone): about 15 times
- activity for acetophenone reduction ([3]; homogeneous enzyme): 348 U/mg
- relative activity ([3]; phenylacetaldehyde = 100%): 87%
- Relative activity [%] [3]: 100%

Molecule: CCCCCCCCC(C)=O [Decan-2-one, 2-decanone]
- relative activity [4, 8]: 79%
- relative activity [4, 9]: 79%
- relative activity [3, 8]: 76%
- relative activity [3, 9]: 76%
- Relative activity [%] [3]: 2521%

Molecule: CCOC(=O)C(=O)CC [Ethyl 2-oxobutyrate, ethyl 2-oxobutyrate]
- Conversion after 10 min [%] [1]: >95%
- ee [%] of the product [1]: >99%

Molecule: CCOC(=O)CC(C)=O [Ethyl acetoacetate]
- relative activity [4, 10]: 250%
- relative activity ([4]; relative to methyl acetoacetate = 100%, listed as β-ketoethyl esters): 250%
- Relative activity [%] [3]: 1020%
- relative activity [3, 10]: 773%
- relative activity ([3]; relative to methyl acetoacetate = 100%, listed as β-ketoethyl ester): 773%

Molecule: CCCCCC(C)=O [Heptan-2-one, 2-heptanone]
- Conversion after 10 min [%] [1]: >95%
- ee [%] of the product [1]: >99%
- relative activity [4, 11]: 100%
- relative activity [4, 12]: 100%
- relative activity [3, 11]: 100%
- relative activity [3, 12]: 100%
- Relative activity [%] [3]: 3328%

Molecule: COC(=O)CC(C)=O [Methyl acetoacetate, methyl acetoacetate]
- relative activity [4, 10]: 100%
- Relative activity [%] [3]: 134%
- relative activity [3, 10]: 100%
- relative activity ([3]; relative to methyl acetoacetate = 100%, listed as methyl ester): 100%

Molecule: CC(=O)COc1ccccc1 [Phenoxyacetone, phenoxyacetone]
- relative activity [4, 13]: 71%
- relative activity [4, 14]: 71%
- relative activity [3, 13]: 126%
- relative activity [3, 14]: 126%
- Relative activity [%] [3]: 4180%

Molecule: O=CCc1ccccc1 [Phenylacetaldehyde]
- relative activity [2]: 100%
- relative activity ([3]; phenylacetaldehyde = 100%): 100%

Molecule: CCCCC=O [Valeraldehyde]
- relative activity [2]: 181%
- relative activity ([3]; phenylacetaldehyde = 100%): 433%

Molecule: CC(=O)c1cccc(Cl)c1 [m-Cl-acetophenone]
- Relative activity [%] [3]: 2384%

Molecule: CC(=O)c1ccc(Cl)cc1 [p-Cl-acetophenone, p-chloroacetophenone]
- Conversion after 10 min [%] [1]: >95%
- enantiomeric form of the product of conversion by the new alcohol dehydrogenase ([1]; also when used several times or at higher concentrations): enantiomerically pure
- ee [%] of the product [1]: >99%
- relative activity [2]: 338%
- relative activity [5, 15]: 81%
- relative activity [5, 16]: 81%
- ee of (S)-p-chloro-2-phenylethanol obtained ([6]; after 25 h (about 9 volume changes)): 70 % ee
- ee of the alcohol obtained ([6]; after 50 h (about 18 volume changes)): about 5 % ee
- relative activity [4, 17]: 100%
- relative activity [4, 18]: 100%
- relative activity ([3]; phenylacetaldehyde = 100%): 288%
- Relative activity [%] [3]: 1198%
- relative activity [3, 17]: 909%
- relative activity [3, 18]: 909%
- relative activity [3, 15]: 189%
- relative activity [3, 16]: 189%

Molecule: CC(=O)c1ccc(F)cc1 [p-F-acetophenone, p-fluoroacetophenone]
- relative activity ([5]; relative to p-fluoroacetophenone = 100%, listed as drawing 6): 100%
- relative activity ([5]; relative to p-fluoroacetophenone = 100%, listed as p-fluoroacetophenone): 100%
- Relative activity [%] [3]: 194%
- relative activity ([3]; relative to p-fluoroacetophenone = 100%): 100%

Molecule: COc1ccc(C(C)=O)cc1 [p-methoxy-acetophenone, p-methoxyacetophenone]
- relative activity [5, 19]: 90%
- relative activity [5, 20]: 90%
- Relative activity [%] [3]: 232%
- relative activity [3, 19]: 195%
- relative activity [3, 20]: 195%

Molecule: CC(=O)c1ccc(C)cc1 [p-methyl-acetophenone, p-methylacetophenone]
- relative activity [5, 21]: 100%
- Relative activity [%] [3]: 640%
- relative activity [3, 21]: 100%

Molecule: RE-ADH (Rhodococcus erythropolis)
- Km (C[C@H](O)c1ccc(Cl)cc1): 0.28 mM
- Km (CC(=O)c1ccc(Cl)cc1): 0.5 mM

B1: RE-ADH (Rhodococcus erythropolis) (protein)
chain: MKAIQYTRIGAEPELTEIPKPEPGPGEVLLEVTAAGVCHSDDFIMSLPEEQYTYGLPLTLGHEGAGKVAAVGEGVEGLDIGTNVVVYGPWGCGNCWHCSQGLENYCSRAQELGINPPGLGAPGALAEFMIVDSPRHLVPIGDLDPVKTVPLTDAGLTPYHAIKRSLPKLRGGSYAVVIGTGGLGHVAIQLLRHLSAATVIALDVSADKLELATKVGAHEVVLSDKDAAENVRKITGSQGAALVLDFVGYQPTIDTAMAVAGVGSDVTIVGIGDGQAHAKVGFFQSPYEASVTVPYWGARNELIELIDLAHAGIFDIAVETFSLDNGAEAYRRLAAGTLSGRAVVVPGL
- Km [7]: 0.082 mM
